Tests used:
[1] = AUC (0 to infinity) in male BALB/c mouse at 10 mg/kg, iv measured upto 24 hrs by LC-MS/MS analysis; format: ADME, organism-based; conditions: in vivo
[2] = MRT (0 to t) in male BALB/c mouse at 10 mg/kg, iv measured upto 24 hrs by LC-MS/MS analysis; format: ADME, organism-based; conditions: in vivo
[3] = Volume of distribution in male BALB/c mouse at 10 mg/kg, iv measured upto 24 hrs by LC-MS/MS analysis; format: ADME, organism-based; conditions: in vivo
[4] = Half life in male BALB/c mouse at 50 mg/kg, po measured upto 24 hrs by LC-MS/MS analysis; format: ADME, organism-based; conditions: in vivo
[5] = AUC (0 to t) in male BALB/c mouse at 10 mg/kg, iv measured upto 24 hrs by LC-MS/MS analysis; format: ADME, organism-based; conditions: in vivo
[6] = system: Huh-7; assay: Antiproliferative activity against human Huh-7 cells assessed as inhibition of cell growth incubated for 72 hrs by MTT assay; format: functional, cell-based; conditions: huh-7
[7] = Acute toxicity in BALB/c mouse assessed as brain damage at 100 mg/kg, po; format: organism-based; conditions: in vivo
[8] = Acute toxicity in BALB/c mouse assessed as heart damage at 100 mg/kg, po; format: organism-based; conditions: in vivo
[9] = Acute toxicity in BALB/c mouse assessed as liver damage at 100 mg/kg, po; format: organism-based; conditions: in vivo
[10] = Oral bioavailability in male BALB/c mouse at 50 mg/kg measured upto 24 hrs by LC-MS/MS analysis; format: ADME, organism-based; conditions: in vivo
[11] = Initial plasma concentration in male BALB/c mouse at 10 mg/kg, iv measured upto 24 hrs by LC-MS/MS analysis; format: ADME, organism-based
[12] = Clearance in male BALB/c mouse at 10 mg/kg, iv measured upto 24 hrs by LC-MS/MS analysis; format: ADME, organism-based; conditions: in vivo
[13] = MRT (0 to t) in male BALB/c mouse at 50 mg/kg, po measured upto 24 hrs by LC-MS/MS analysis; format: ADME, organism-based; conditions: in vivo
[14] = AUC (0 to infinity) in male BALB/c mouse at 50 mg/kg, po measured upto 24 hrs by LC-MS/MS analysis; format: ADME, organism-based; conditions: in vivo
[15] = AUC (0 to t) in male BALB/c mouse at 50 mg/kg, po measured upto 24 hrs by LC-MS/MS analysis; format: ADME, organism-based; conditions: in vivo
[16] = Antiproliferative activity against human NCI-H820 cells assessed as inhibition of cell growth incubated for 72 hrs by MTT assay; format: functional, cell-based; conditions: nci-h820
[17] = Half life in male BALB/c mouse at 10 mg/kg, iv measured upto 24 hrs by LC-MS/MS analysis; format: ADME, organism-based; conditions: in vivo
[18] = Prodrug conversion of the compound in HEPES buffer assessed as (1aR,7aS,10aS,10bS)-1a-methyl-8-methylene-5-(2,2,2-trifluoroethyl)-2,3,6,7,7a,8,10a,10b-octahydrooxireno[2',3':9,10]cyclodeca[1,2-b]furan-9(1aH)-one formation by measuring half life at pH 7.4 by RP-HPLC analysis; format: ADME
[19] = Acute toxicity in BALB/c mouse assessed as change in body weight at 100 mg/kg, po; format: organism-based; conditions: in vivo
[20] = system: PANC-1; assay: Antiproliferative activity against human PANC-1 cells assessed as inhibition of cell growth incubated for 72 hrs by MTT assay; format: functional, cell-based; conditions: panc-1
[21] = Tmax in male BALB/c mouse at 50 mg/kg, po measured upto 24 hrs by LC-MS/MS analysis; format: ADME, organism-based; conditions: in vivo
[22] = Cmax in male BALB/c mouse at 50 mg/kg, po measured upto 24 hrs by LC-MS/MS analysis; format: ADME, organism-based; conditions: in vivo
[23] = Acute toxicity in BALB/c mouse assessed as spleen damage at 100 mg/kg, po; format: organism-based; conditions: in vivo
[24] = Acute toxicity in BALB/c mouse assessed as lung damage at 100 mg/kg, po; format: organism-based; conditions: in vivo
[25] = Acute toxicity in BALB/c mouse assessed as kidney damage at 100 mg/kg, po; format: organism-based; conditions: in vivo

CN(C)CC1C(=O)O[C@H]2[C@H]1CC/C(CC(F)(F)F)=C\CC[C@@]1(C)O[C@@H]21.O=C(O)/C=C/C(=O)O (stereo not given in full)
AUC(0-inf) [1]: 444 ng·h/mL | MRT last at 24 h [2]: 24.1 min | Vd [3]: 12.1 L/kg | half-life [4]: 47.9 min | AUC(0-t) at 24 h [5]: 438 ng·h/mL | IC50 [6]: 3.41 µM | Activity [7]: Non-toxic | Activity [8]: Non-toxic | Activity [9]: Non-toxic | bioavailability [10]: 45.2% | C0 at 24 h [11]: 1450 ng/mL | clearance [12]: 253 mL/min/kg | MRT last at 24 h [13]: 49.7 min | AUC(0-inf) [14]: 991 ng·h/mL | AUC(0-t) at 24 h [15]: 991 ng·h/mL | IC50 [16]: 4.18 µM | half-life [17]: 33.2 min | t1/2 [18]: 76.8 min | Activity [19]: Non-toxic | IC50 [20]: 4.16 µM | Tmax [21]: 15 min | Cmax [22]: 1080 ng/mL | Activity [23]: Non-toxic | Activity [24]: Non-toxic | Activity [25]: Non-toxic

From ChEMBL document CHEMBL6103569, “Discovery of novel fluorine-containing parthenolide analogues as potential antitumor agents” (Eur J Med Chem, 2025)
